Structures can show the parent of a compound that is named as a salt.
Target: T1, PRMT1 (Homo sapiens, UniProt Q99873)
T1 construct: host or cells: RKO cells
Test: RKO methylation assay, In Cell Western (ICW) for mono-methyl arginine and DNA content
Type: cell-based
Settings: RKO cells, 72 hours, mono-methyl arginine signal normalised to DRAQ5, percent activation
Source text: RKO Methylation Assay RKO adherent cells were purchased from ATCC (American Type Culture Collection), Manassas, Va., USA. DMEM/Glutamax medium, penicillin-streptomycin, heat inactivated fetal bovine serum, 0.05% trypsin and D-PBS were purchased from Life Technologies, Grand Island, N.Y., USA. Odyssey blocking buffer, 800CW goat anti-rabbit IgG (H+L) antibody, and Licor Odyssey infrared scanner were purchased from Licor Biosciences, Lincoln, Nebr., USA. Mono-methyl arginine antibody was purchased from Cell Signaling Technology, Danvers, Mass., USA. Methanol was purchased from VWR, Franklin, Mass., USA. 10% Tween 20 was purchased from KPL, Inc., Gaithersburg, Md., USA. DRAQ5 was purchased from Biostatus Limited, Leicestershire, UK. RKO adherent cells were maintained in growth medium (DMEM/Glutamax medium supplemented with 10% v/v heat inactivated fetal bovine serum and 100 units/mL penicillin-streptomycin) and cultured at 37° C. under 5% CO2. Cell Treatment, in Cell Western (ICW) for Detection of Mono-Methyl Arginine and DNA Content. RKO cells were seeded in assay medium at a concentration of 20,000 cells per mL to a poly-D-lysine coated 384 well culture plate (BD Biosciences 356697) with 50 μL per well. Compound (100 nL) from a 96-well source plate was added directly to 384 well cell plate. Plates were incubated at 37° C., 5% CO2 for 72 hours. After three days of incubation, plates were brought to room temperature outside of the incubator for ten minutes and blotted on paper towels to remove cell media. 50 μL of ice cold 100% methanol was added directly to each well and incubated for 30 min at room temperature. After 30 min, plates were transferred to a Biotek EL406 plate washer and washed 2 times with 100 μL per well of wash buffer (1×PBS). Next 60 μL per well of Odyssey blocking buffer (Odyssey Buffer with 0.1% Tween 20 (v/v)) were added to each plate and incubated 1 hour at room temperature. Blocking buffer was removed and 20 μL per well of primary antibody was added (mono-methyl arginine diluted 1:200 in Odyssey buffer with 0.1% Tween 20 (v/v)) and plates were incubated overnight (16 hours) at 4° C. Plates were washed 5 times with 100 μL per well of wash buffer. Next 20 μL per well of secondary antibody was added (1:200 800CW goat anti-rabbit IgG (H+L) antibody, 1:1000 DRAQ5 (Biostatus limited) in Odyssey buffer with 0.1% Tween 20 (v/v)) and incubated for 1 hour at room temperature. The plates were washed 5 times with 100 μL per well wash buffer then 2 times with 100 μL per well of water. Plates were allowed to dry at room temperature then imaged on the Licor Odyssey machine which measures integrated intensity at 700 nm and 800 nm wavelengths. Both 700 and 800 channels were scanned. […] Each plate included fourteen control wells of DMSO only treatment (minimum activation) as well as fourteen control wells for maximum activation treated with 20 μM of a reference compound. The average of the ratio values for each control type was calculated and used to determine the percent activation for each test well in the plate. Reference compound was serially diluted three-fold in DMSO for a total of nine test concentrations, beginning at 20 μM. Percent activation was determined and EC30 curves were generated using triplicate wells per concentration of compound.

T1 sequence (Q99873 whole entry): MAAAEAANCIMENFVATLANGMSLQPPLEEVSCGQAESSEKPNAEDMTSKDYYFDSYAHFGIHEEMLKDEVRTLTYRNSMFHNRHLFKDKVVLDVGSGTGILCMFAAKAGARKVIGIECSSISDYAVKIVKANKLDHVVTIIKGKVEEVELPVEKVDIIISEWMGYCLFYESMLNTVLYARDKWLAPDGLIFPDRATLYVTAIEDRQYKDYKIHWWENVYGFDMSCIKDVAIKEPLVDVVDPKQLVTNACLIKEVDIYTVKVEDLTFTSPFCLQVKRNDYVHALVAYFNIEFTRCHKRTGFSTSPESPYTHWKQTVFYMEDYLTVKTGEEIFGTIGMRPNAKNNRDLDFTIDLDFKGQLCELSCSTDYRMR

| SMILES | PRMT1 RGG ICW EC30 [nM] |
| --- | --- |
| CNCCN(C)Cc1n[nH]cc1[C@H]1CC[C@@]2(CC1)CC(C)(C)CO2 [compound 115] | 20.34 |
| CNCCN(C)Cc1n[nH]cc1[C@H]1CC[C@]2(CC1)CC(C)(C)CO2 [compound 116] | 154.5 |
| CNCCN(C)Cc1nocc1[C@H]1CC[C@@]2(CC1)CC(C)(C)CO2 [compound 117] | 863.2 |
| CCOCC1(COCC)CCC(c2n[nH]cc2CN(C)CCN(C)C)CC1 [compound 121] | 117.5 |
| CCOCC1(COCC)CCC(c2nn(C)cc2CN(C)CCNC)CC1 [compound 122] | 22.11 |
| CCOCC1(COCC)CCC(c2n[nH]cc2CN(C)CCN)CC1 [compound 123] | 17.8 |
| CCOCC1(COCC)CCC(c2nn(C)cc2CN(C)CCN)CC1 [compound 124] | 55.87 |
| CNCCN(C)Cc1c[nH]nc1C1CCC2(CC1)CC(C)(C)OC2=O (stereo not shown) [compound 125] | 14.88 |
| CNCCN(C)Cc1c[nH]nc1[C@H]1CC[C@@]2(CC1)COC(C)(C)C2 [compound 126, N1-((3-((5r,8r)-3,3-dimethyl-2-oxaspiro[4.5]decan-8-yl)-1H-pyrazol-4-yl)methyl)-N1,N2-dimethylethane-1,2-diamine] | 15.26 |
| CNCCN(C)Cc1c[nH]nc1[C@H]1CC[C@]2(CCCCO2)CC1 [compound 127, methyl([2-[methyl([3-[(6s,9r)-1-oxaspiro[5.5]undecan-9-yl]-1H-pyrazol-4-yl]methyl)amino]ethyl])amine bistrifluoroacetic acid salt] | 8.48 |

Reference: US20170291905A1, “ARGININE […] INHIBITORS AND USES THEREOF” (Epizyme, Inc., priority 2014, published 2017)
